# Tests used:
# Assay type in all cases: in vivo
# [1] = tested on: waterhemp (common waterhemp, Amaranthus rudis); experiment: Test C preemergence; settings: scale 0 to 100, 0 is no effect, 100 is complete control
# Text: (§1) Seeds of plant species selected from blackgrass (Alopecurus myosuroides), Italian ryegrass (Lolium multiflorum), winter wheat (Triticum aestivum), galium (catchweed bedstraw, Galium aparine), corn (Zea mays), large (Lg) crabgrass (Digitaria sanguinalis), giant foxtail (Setaria faberii), johnsongrass (Sorghum halepense), lambsquarters (Chenopodium album), morningglory (Ipomoea coccinea), yellow nutsedge (Cyperus esculentus), pigweed (Amaranthus retroflexus), ragweed (common ragweed, Ambrosia elatior), soybean (Glycine max), barnyardgrass (Echinochloa crus-galli), oilseed rape (Brassica napus), waterhemp (common waterhemp, Amaranthus rudis), and velvetleaf (Abutilon theophrasti) were planted into a blend of loam soil and sand and treated preemergence with test chemicals formulated in a non-phytotoxic solvent mixture which included a surfactant. At the same time, plants selected from these crop and weed species and also chickweed (common chickweed, Stellaria media), kochia (Kochia scoparia), and wild oat (Avena fatua), were planted in pots containing Sunshine Redi-Earth® planting medium comprising spaghnum peat moss, vermiculite, starter nutrients and dolomitic limestone and treated with postemergence applications of test chemicals formulated in the same manner. Plants ranged in height from 2 to 18 cm (1- to 4-leaf stage) for postemergence treatments. Treated plants and controls were maintained in a greenhouse for 13 to 15 days, after which time all species were compared to controls and visually evaluated. Plant response ratings, summarized in Table C, are based on a scale of 0 to 100 where 0 is no effect and 100 is complete control. A dash (-) response means no test result.
# [2] = tested on: johnsongrass (Sorghum halepense); experiment: Test C preemergence; settings: scale 0 to 100, 0 is no effect, 100 is complete control
# Text: as §1
# [3] = tested on: lambsquarters (Chenopodium album); experiment: Test C preemergence; settings: scale 0 to 100, 0 is no effect, 100 is complete control
# Text: as §1
# [4] = tested on: giant foxtail (Setaria faberii); experiment: Test C preemergence; settings: scale 0 to 100, 0 is no effect, 100 is complete control
# Text: as §1
# [5] = tested on: blackgrass (Alopecurus myosuroides); experiment: Test C preemergence; settings: scale 0 to 100, 0 is no effect, 100 is complete control
# Text: as §1
# soybean (Glycine max) = experiment: Test C preemergence; settings: scale 0 to 100, 0 is no effect, 100 is complete control
# Text: as §1
# [6] = tested on: galium (catchweed bedstraw, Galium aparine); experiment: Test C preemergence; settings: scale 0 to 100, 0 is no effect, 100 is complete control
# Text: as §1
# [7] = tested on: large (Lg) crabgrass (Digitaria sanguinalis); experiment: Test C preemergence; settings: scale 0 to 100, 0 is no effect, 100 is complete control
# Text: as §1
# [8] = tested on: pigweed (Amaranthus retroflexus); experiment: Test C preemergence; settings: scale 0 to 100, 0 is no effect, 100 is complete control
# Text: as §1
# rice (Oryza sativa) = experiment: Test B flooded paddy test; set-up: key: 0 = no effect, 100 = complete control; settings: Flood, 250 g ai/ha applied to paddy water at 2-leaf stage; visually evaluated after 13 to 15 days; scale 0 (no effect) to 100 (complete control)
# Summary of the method: (§2)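 Treatment was made at the 2-leaf stage by dosing the standing floodwater, kept 3 cm above soil level for the whole test. Greenhouse exposure lasted 13 to 15 days. Response is a visual percent rating relative to controls, where a dash indicates no test result.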
# [9] = tested on: ducksalad (Heteranthera limosa); experiment: Test B flooded paddy test; set-up: key: 0 = no effect, 100 = complete control; settings: Flood, 250 g ai/ha applied to paddy water at 2-leaf stage; visually evaluated after 13 to 15 days; scale 0 (no effect) to 100 (complete control)
# Summary of the method: as §2
# [10] = tested on: barnyardgrass (Echinochloa crus-galli); experiment: Test B flooded paddy test; set-up: key: 0 = no effect, 100 = complete control; settings: Flood, 250 g ai/ha applied to paddy water at 2-leaf stage; visually evaluated after 13 to 15 days; scale 0 (no effect) to 100 (complete control)
# Summary of the method: as §2
# [11] = tested on: sedge, umbrella (small-flower umbrella sedge, Cyperus difformis); experiment: Test B flooded paddy test; set-up: key: 0 = no effect, 100 = complete control; settings: Flood, 250 g ai/ha applied to paddy water at 2-leaf stage; visually evaluated after 13 to 15 days; scale 0 (no effect) to 100 (complete control)
# Summary of the method: as §2
# [12] = tested on: Italian ryegrass (Lolium multiflorum); experiment: Test A preemergence, directed soil spray; settings: approx. 10 days
# Summary of the method: (§3)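 Ratings reflect visual injury compared with untreated controls roughly 10 days after treatment, scored 0 (no effect) to 100 (complete control). Applications were preemergence soil sprays or postemergence sprays on young one- to two-leaf plants.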
# kochia (Kochia scoparia) = experiment: Test A preemergence, directed soil spray; settings: approx. 10 days
# Summary of the method: as §3
# [13] = tested on: barnyardgrass (Echinochloa crus-galli); experiment: Test A preemergence, directed soil spray; settings: approx. 10 days
# Summary of the method: as §3
# [14] = tested on: giant foxtail (Setaria faberii); experiment: Test A preemergence, directed soil spray; settings: approx. 10 days
# Summary of the method: as §3
# [15] = tested on: ragweed (common ragweed, Ambrosia elatior); experiment: Test A preemergence, directed soil spray; settings: approx. 10 days
# Summary of the method: as §3
# [16] = tested on: pigweed (Amaranthus retroflexus); experiment: Test A preemergence, directed soil spray; settings: approx. 10 days
# Summary of the method: as §3
smiles,measurement,setting,value
O=c1cccc(Oc2ncc(Cl)cn2)n1-c1ccc(C(F)(F)F)cn1 [Compound 7],"Plant response rating, Waterhemp",[1]; 16 g ai/ha,85
same,"Plant response rating, Waterhemp",[1]; 31 g ai/ha,85
same,"Plant response rating, Waterhemp",[1]; 62 g ai/ha,100
same,"Plant response rating, Waterhemp",[1]; 125 g ai/ha,100
same,"Plant response rating, Johnsongrass",[2]; 16 g ai/ha,0
same,"Plant response rating, Johnsongrass",[2]; 31 g ai/ha,0
same,"Plant response rating, Johnsongrass",[2]; 62 g ai/ha,10
same,"Plant response rating, Johnsongrass",[2]; 125 g ai/ha,20
same,"Plant response rating, Lambsquarters",[3]; 16 g ai/ha,15
same,"Plant response rating, Lambsquarters",[3]; 31 g ai/ha,40
same,"Plant response rating, Lambsquarters",[3]; 62 g ai/ha,75
same,"Plant response rating, Lambsquarters",[3]; 125 g ai/ha,75
same,"Plant response rating, Foxtail, Giant",[4]; 16 g ai/ha,25
same,"Plant response rating, Foxtail, Giant",[4]; 31 g ai/ha,60
same,"Plant response rating, Foxtail, Giant",[4]; 62 g ai/ha,85
same,"Plant response rating, Foxtail, Giant",[4]; 125 g ai/ha,98
same,"Plant response rating, Blackgrass",[5]; 16 g ai/ha,0
same,"Plant response rating, Blackgrass",[5]; 31 g ai/ha,0
same,"Plant response rating, Blackgrass",[5]; 62 g ai/ha,30
same,"Plant response rating, Blackgrass",[5]; 125 g ai/ha,85
same,"Plant response rating, Soybean",soybean (Glycine max); 16 g ai/ha,10
same,"Plant response rating, Soybean",soybean (Glycine max); 62 g ai/ha,15
same,"Plant response rating, Soybean",soybean (Glycine max); 125 g ai/ha,50
same,"Plant response rating, Galium",[6]; 16 g ai/ha,0
same,"Plant response rating, Galium",[6]; 31 g ai/ha,50
same,"Plant response rating, Galium",[6]; 62 g ai/ha,98
same,"Plant response rating, Galium",[6]; 125 g ai/ha,100
same,"Plant response rating, Crabgrass, Large",[7]; 16 g ai/ha,5
same,"Plant response rating, Crabgrass, Large",[7]; 31 g ai/ha,60
same,"Plant response rating, Crabgrass, Large",[7]; 62 g ai/ha,95
same,"Plant response rating, Crabgrass, Large",[7]; 125 g ai/ha,100
same,"Plant response rating, Pigweed",[8]; 16 g ai/ha,20
same,"Plant response rating, Pigweed",[8]; 31 g ai/ha,100
same,"Plant response rating, Pigweed",[8]; 62 g ai/ha,100
same,"Plant response rating, Pigweed",[8]; 125 g ai/ha,100
same,"Plant response rating, Rice",rice (Oryza sativa),0
same,"Plant response rating, Ducksalad",[9],100
same,"Plant response rating, Barnyardgrass",[10],0
same,"Plant response rating, Sedge, Umbrella",[11],90
same,"Plant response rating (0 to 100 scale, 0 no effect, 100 complete control), Ryegrass, Italian",[12]; 31 g ai/ha,10
same,"Plant response rating (0 to 100 scale, 0 no effect, 100 complete control), Ryegrass, Italian",[12]; 125 g ai/ha,60
same,"Plant response rating (0 to 100 scale, 0 no effect, 100 complete control), Kochia",kochia (Kochia scoparia); 31 g ai/ha,30
same,"Plant response rating (0 to 100 scale, 0 no effect, 100 complete control), Kochia",kochia (Kochia scoparia); 125 g ai/ha,70
same,"Plant response rating (0 to 100 scale, 0 no effect, 100 complete control), Barnyardgrass",[13]; 31 g ai/ha,20
same,"Plant response rating (0 to 100 scale, 0 no effect, 100 complete control), Barnyardgrass",[13]; 125 g ai/ha,70
same,"Plant response rating (0 to 100 scale, 0 no effect, 100 complete control), Foxtail, Giant",[14]; 31 g ai/ha,60
same,"Plant response rating (0 to 100 scale, 0 no effect, 100 complete control), Foxtail, Giant",[14]; 125 g ai/ha,100
same,"Plant response rating (0 to 100 scale, 0 no effect, 100 complete control), Ragweed",[15]; 31 g ai/ha,10
same,"Plant response rating (0 to 100 scale, 0 no effect, 100 complete control), Ragweed",[15]; 125 g ai/ha,70
same,"Plant response rating (0 to 100 scale, 0 no effect, 100 complete control), Pigweed",[16]; 31 g ai/ha,100
same,"Plant response rating (0 to 100 scale, 0 no effect, 100 complete control), Pigweed",[16]; 125 g ai/ha,100
O=c1cccc(Oc2ncc(Cl)cn2)n1-c1ccc(C(F)(F)F)cc1 [Compound 10],"Plant response rating, Waterhemp",[1]; 16 g ai/ha,70
same,"Plant response rating, Waterhemp",[1]; 31 g ai/ha,95
same,"Plant response rating, Waterhemp",[1]; 62 g ai/ha,100
same,"Plant response rating, Waterhemp",[1]; 125 g ai/ha,100
same,"Plant response rating, Johnsongrass",[2]; 16 g ai/ha,0
same,"Plant response rating, Johnsongrass",[2]; 31 g ai/ha,5
same,"Plant response rating, Johnsongrass",[2]; 62 g ai/ha,35
same,"Plant response rating, Johnsongrass",[2]; 125 g ai/ha,70
same,"Plant response rating, Lambsquarters",[3]; 16 g ai/ha,35
same,"Plant response rating, Lambsquarters",[3]; 31 g ai/ha,25
same,"Plant response rating, Lambsquarters",[3]; 62 g ai/ha,35
same,"Plant response rating, Lambsquarters",[3]; 125 g ai/ha,75
same,"Plant response rating, Foxtail, Giant",[4]; 16 g ai/ha,55
same,"Plant response rating, Foxtail, Giant",[4]; 31 g ai/ha,90
same,"Plant response rating, Foxtail, Giant",[4]; 62 g ai/ha,100
same,"Plant response rating, Foxtail, Giant",[4]; 125 g ai/ha,100
same,"Plant response rating, Blackgrass",[5]; 16 g ai/ha,15
same,"Plant response rating, Blackgrass",[5]; 31 g ai/ha,60
same,"Plant response rating, Blackgrass",[5]; 62 g ai/ha,95
same,"Plant response rating, Blackgrass",[5]; 125 g ai/ha,95
same,"Plant response rating, Soybean",soybean (Glycine max); 31 g ai/ha,20
same,"Plant response rating, Galium",[6]; 16 g ai/ha,0
same,"Plant response rating, Galium",[6]; 31 g ai/ha,80
same,"Plant response rating, Galium",[6]; 62 g ai/ha,60
same,"Plant response rating, Galium",[6]; 125 g ai/ha,98
same,"Plant response rating, Crabgrass, Large",[7]; 16 g ai/ha,75
same,"Plant response rating, Crabgrass, Large",[7]; 31 g ai/ha,98
same,"Plant response rating, Crabgrass, Large",[7]; 62 g ai/ha,100
same,"Plant response rating, Crabgrass, Large",[7]; 125 g ai/ha,100
same,"Plant response rating, Pigweed",[8]; 16 g ai/ha,55
same,"Plant response rating, Pigweed",[8]; 31 g ai/ha,65
same,"Plant response rating, Pigweed",[8]; 62 g ai/ha,100
same,"Plant response rating, Pigweed",[8]; 125 g ai/ha,100
same,"Plant response rating, Rice",rice (Oryza sativa),20
same,"Plant response rating, Ducksalad",[9],65
same,"Plant response rating, Barnyardgrass",[10],30
same,"Plant response rating, Sedge, Umbrella",[11],90
same,"Plant response rating (0 to 100 scale, 0 no effect, 100 complete control), Ryegrass, Italian",[12]; 31 g ai/ha,10
same,"Plant response rating (0 to 100 scale, 0 no effect, 100 complete control), Ryegrass, Italian",[12]; 125 g ai/ha,50
same,"Plant response rating (0 to 100 scale, 0 no effect, 100 complete control), Kochia",kochia (Kochia scoparia); 31 g ai/ha,30
same,"Plant response rating (0 to 100 scale, 0 no effect, 100 complete control), Kochia",kochia (Kochia scoparia); 125 g ai/ha,60
same,"Plant response rating (0 to 100 scale, 0 no effect, 100 complete control), Barnyardgrass",[13]; 31 g ai/ha,50
same,"Plant response rating (0 to 100 scale, 0 no effect, 100 complete control), Barnyardgrass",[13]; 125 g ai/ha,90
same,"Plant response rating (0 to 100 scale, 0 no effect, 100 complete control), Foxtail, Giant",[14]; 31 g ai/ha,70
same,"Plant response rating (0 to 100 scale, 0 no effect, 100 complete control), Foxtail, Giant",[14]; 125 g ai/ha,100
same,"Plant response rating (0 to 100 scale, 0 no effect, 100 complete control), Ragweed",[15]; 31 g ai/ha,0
same,"Plant response rating (0 to 100 scale, 0 no effect, 100 complete control), Ragweed",[15]; 125 g ai/ha,10
same,"Plant response rating (0 to 100 scale, 0 no effect, 100 complete control), Pigweed",[16]; 31 g ai/ha,50
same,"Plant response rating (0 to 100 scale, 0 no effect, 100 complete control), Pigweed",[16]; 125 g ai/ha,100
